Results: patent US20220324835A1 (Nurix Therapeutics, Inc., priority 2018, published 2022)
Read-outs that look alike come from different tables or passages of the source.

Columns and labels:
[1] = test system: primary human total T-cells; experiment: T-cell activation assessed by CD69 expression; assay type: cell-based
In short: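 Readouts are fold change versus compound-free cells under the same stimulation: plate-bound anti-CD3 (OKT3, 10 μg/mL coating) alone or with soluble anti-CD28 at 5 μg/mL, for 48 h. Isolated human total T cells (1×10^5/well) got inhibitor 1 h beforehand at concentrations such as 10, 1.11 or 0.123 μM. Measured: GM-CSF/IFNγ/TNFα secretion, surface CD69, proliferation by dye dilution.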

[2] = test system: primary human B cells; experiment: B cell activation assay (CD69 on anti-IgM stimulated B cells); assay type: cell-based; conditions: AUC of dose response curve (10 μM to 1 nM) of CD69 MFI normalized to DMSO control
In short: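 Negatively selected PBMC-derived B cells (>95% CD20+) treated with Cbl-b inhibitors from 10 μM to 1 nM (DMSO <0.5%) and stimulated with anti-IgM for 20 h at 37° C. CD69 MFI on CD20+ IgD+ cells by flow cytometry; dose-response AUC normalized to DMSO plus 2.5 μg/mL anti-IgM-F(ab′)2, binned A-D.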

[3] = CD3/CD28 stimulation, CD4 T-cells, read-out: % CD69+ (CD4)
[4] = CD3/CD28 stimulation, CD8 T-cells, read-out: % CD69+ (CD8)
[5] = CD3 alone stimulation, CD4 T-cells, read-out: % CD69+ (CD4)
[6] = CD3 alone stimulation, CD8 T-cells, read-out: % CD69+ (CD8)

Compound | fold induction at 1.11 µM [1, 3] | fold induction at 10 µM [1, 3] | fold induction at 1.11 µM [1, 4] | fold induction at 10 µM [1, 4] | fold induction at 1.11 µM [1, 5] | fold induction at 10 µM [1, 5] | fold induction at 1.11 µM [1, 6] | fold induction at 10 µM [1, 6] | CD69 MFI AUC [2]
C[C@H](Cc1nncn1C)c1cccc(NC(=O)c2nc(C(F)(F)F)c[nH]2)c1 [Compound 326, (R)-N-(3-(1-(4-methyl-4H-1,2,4-triazol-3-yl)propan-2-yl)phenyl)-4-(trifluoromethyl)-1H-imidazole-2-carboxamide] | 1.2 to 1.4 | 1.4 to 1.6 | ≤ 1.2 | 1.2 to 1.4 | 1.2 to 1.4 | 1.4 to 1.6 | ≤ 1.2 | 1.2 to 1.4 | A (A indicates ≤0.5)
CNCc1ccc(C(=O)Nc2cccc([C@H](C)Cc3nncn3C)c2)nc1C1CC1 [Compound 376, (R)-6-cyclopropyl-N-(3-(1-(4-methyl-4H-1,2,4-triazol-3-yl)propan-2-yl)phenyl)-5-((methylamino)methyl)picolinamide] | 1.4 to 1.6 | > 1.6 | 1.2 to 1.4 | 1.2 to 1.4 | > 1.6 | > 1.6 | 1.2 to 1.4 | 1.4 to 1.6 | B (B indicates 0.5-1.00)
C[C@H](Cc1nncn1C)c1ccnc(NC(=O)c2cccc(C(F)(F)F)n2)c1 [Compound 302, (R)-N-(4-(1-(4-methyl-4H-1,2,4-triazol-3-yl)propan-2-yl)pyridin-2-yl)-6-(trifluoromethyl)picolinamide] | – | – | – | – | – | – | – | – | B (B indicates 0.5-1.00)
Cn1cnnc1[C@@H]1C[C@@H]1c1cccc(N2Cc3c(cccc3C(F)(F)F)C2=O)c1 [Compound 282, 2-(3-((1S,2R)-2-(4-methyl-4H-1,2,4-triazol-3-yl)cyclopropyl)phenyl)-4-(trifluoromethyl)isoindolin-1-one] | ≤ 1.2 | 1.2 to 1.4 | ≤ 1.2 | 1.2 to 1.4 | ≤ 1.2 | 1.2 to 1.4 | ≤ 1.2 | ≤ 1.2 | B (B indicates 0.5-1.00)
C[C@H](Cc1nncn1C)c1cccc(N2Cc3c(ccnc3C3CC3)C2=O)c1 [Compound 257, 4-cyclopropyl-2-[3-[(1R)-1-methyl-2-(4-methyl-1,2,4-triazol-3-yl)ethyl]phenyl]-3H-pyrrolo[3,4-c]pyridin-1-one] | ≤ 1.2 | 1.4 to 1.6 | ≤ 1.2 | 1.2 to 1.4 | ≤ 1.2 | 1.2 to 1.4 | ≤ 1.2 | 1.2 to 1.4 | B (B indicates 0.5-1.00)
Cc1cc2c(c(C3CC3)n1)CN(c1cccc([C@H](C)Cc3nncn3C)c1)C2=O [Compound 372, 4-cyclopropyl-6-methyl-2-{3-[(2R)-1-(4-methyl-4H-1,2,4-triazol-3-yl)propan-2-yl]phenyl}-1H,2H,3H-pyrrolo[3,4-c]pyridin-1-one] | ≤ 1.2 | 1.2 to 1.4 | ≤ 1.2 | 1.2 to 1.4 | ≤ 1.2 | 1.2 to 1.4 | ≤ 1.2 | 1.2 to 1.4 | A (A indicates ≤0.5)
Cn1cnnc1[C@@H]1C[C@@H]1c1cccc(N2Cc3c(ccnc3C(F)(F)F)C2=O)c1 [Compound 369, 2-{3-[(1S,2R)-2-(4-methyl-4H-1,2,4-triazol-3-yl)cyclopropyl]phenyl}-4-(trifluoromethyl)-1H,2H,3H-pyrrolo[3,4-c]pyridin-1-one] | ≤ 1.2 | 1.4 to 1.6 | ≤ 1.2 | 1.2 to 1.4 | ≤ 1.2 | ≤ 1.2 | ≤ 1.2 | ≤ 1.2 | C (C indicates 1.01-1.50)
C[C@H](Sc1nncn1C)c1cccc(NC(=O)c2cc(C(=O)N3CC[C@H](O)C3)ccn2)c1 [Compound 140, 4-[[(3S)-3-hydroxypyrrolidin-1-yl]carbonyl]-N-[3-[(1S)-1-[(4-methyl-4H-1,2,4-triazol-3-yl)sulfanyl]ethyl]phenyl]pyridine-2-carboxamide] | 1.4 to 1.6 | > 1.6 | 1.2 to 1.4 | 1.2 to 1.4 | > 1.6 | > 1.6 | 1.4 to 1.6 | 1.4 to 1.6 | A (A indicates ≤0.5)
C[C@H](Cc1nncn1C)c1cccc(NC(=O)c2cccc(CCO)n2)c1 [Compound 202, 6-(2-hydroxyethyl)-N-[3-[(2R)-1-(4-methyl-4H-1,2,4-triazol-3-yl)propan-2-yl]phenyl]pyridine-2-carboxamide] | ≤ 1.2 | 1.2 to 1.4 | ≤ 1.2 | ≤ 1.2 | ≤ 1.2 | 1.2 to 1.4 | ≤ 1.2 | ≤ 1.2 | C (C indicates 1.01-1.50)
